Source: ChEMBL document CHEMBL3351608, “2-Phenylindole and Arylsulphonamide: Novel Scaffolds Bactericidal against Mycobacterium tuberculosis” (ACS Med Chem Lett, 2014)
In brackets after ≈: the same amount, converted by molar mass.

What was measured:
Test in all cases: microbe, parasite or virus in culture
Conditions in all cases: variant bovis BCG, 3 h
[1] = system: Mycobacterium tuberculosis
[2] = system: Mycobacterium tuberculosis; remark: listed apart in the source
[3] = system: Mycobacterium tuberculosis; remark: listed apart in the source

Row | Structure (SMILES) | IC50 [1] [µg/mL] | IC50 [2] [µg/mL] | IC50 [3] [µg/mL]
1 | C[C@@H]1CN(c2c(F)c(N)c3c(=O)c(C(=O)O)cn(C4CC4)c3c2F)C[C@H](C)N1 [SPARFLOXACIN] | 16.7 (≈ 42.6 µM) | 7.3 (≈ 18.6 µM) | 11.4 (≈ 29.1 µM)
2 | O=C(N[C@H](CO)[C@H](O)c1ccc([N+](=O)[O-])cc1)C(Cl)Cl [CHLORAMPHENICOL] |  |  | 5.6 (≈ 17.3 µM)
3 | CO[C@H]1/C=C/O[C@@]2(C)Oc3c(C)c(O)c4c(O)c(c(/C=N/N5CCN(C)CC5)c(O)c4c3C2=O)NC(=O)/C(C)=C\C=C\[C@H](C)[C@H](O)[C@@H](C)[C@@H](O)[C@@H](C)[C@H](OC(C)=O)[C@@H]1C [RIFAMPIN] |  | 2.9 (≈ 3.52 µM) | 2 (≈ 2.43 µM)
